Assay results taken from the NIST ThermoML archive (doi:10.1021/je0301794).

Tests used:
[1] = xn = mol fraction of the nth substance listed; conditions: 101.3 kPa, Liquid
[2] = excess molar enthalpy (molar enthalpy of mixing); xn = mol fraction of the nth substance listed; conditions: 318.15 K, 101.3 kPa, Liquid

COC(=O)OC [dimethyl carbonate] + CCCCCCC
[1]
Conditions | mass density [kg/m3]
293.15 K, x1 = 0.05 | 694
293.15 K, x1 = 0.094 | 703.5
293.15 K, x1 = 0.2039 | 729.2
293.15 K, x1 = 0.324 | 761.2
293.15 K, x1 = 0.4062 | 785.9
293.15 K, x1 = 0.5059 | 819.4
293.15 K, x1 = 0.6099 | 859.2
293.15 K, x1 = 0.6987 | 897.8
293.15 K, x1 = 0.8086 | 952.7
293.15 K, x1 = 0.9029 | 1006.6
293.15 K, x1 = 0.9504 | 1036.6
293.15 K, x1 = 1 | 1070
298.15 K, x1 = 0.0594 | 691.6
298.15 K, x1 = 0.1204 | 704.9
298.15 K, x1 = 0.2132 | 726.7
298.15 K, x1 = 0.3135 | 753.1
298.15 K, x1 = 0.4018 | 779
298.15 K, x1 = 0.4716 | 801.6
298.15 K, x1 = 0.6051 | 851
298.15 K, x1 = 0.6946 | 889.3
298.15 K, x1 = 0.8031 | 943
298.15 K, x1 = 0.902 | 999.5
298.15 K, x1 = 0.9477 | 1028.2
298.15 K, x1 = 1 | 1063.5
303.15 K, x1 = 0.0586 | 687.2
303.15 K, x1 = 0.0873 | 693.2
303.15 K, x1 = 0.1996 | 718.7
303.15 K, x1 = 0.299 | 744.2
303.15 K, x1 = 0.4009 | 773.6
303.15 K, x1 = 0.5081 | 808.9
303.15 K, x1 = 0.6069 | 846.2
303.15 K, x1 = 0.6979 | 885.2
303.15 K, x1 = 0.8051 | 938
303.15 K, x1 = 0.9069 | 995.8
303.15 K, x1 = 0.9638 | 1031.6
303.15 K, x1 = 1 | 1056.5
313.15 K, x1 = 0.0649 | 679.3
313.15 K, x1 = 0.1157 | 690.1
313.15 K, x1 = 0.3432 | 746.6
313.15 K, x1 = 0.4378 | 775.1
313.15 K, x1 = 0.5458 | 812
313.15 K, x1 = 0.6259 | 842.9
313.15 K, x1 = 0.7191 | 883.2
313.15 K, x1 = 0.8128 | 929.3
313.15 K, x1 = 0.8798 | 966.5
313.15 K, x1 = 0.9536 | 1012
313.15 K, x1 = 0.9822 | 1031.1
313.15 K, x1 = 1 | 1043.4
318.15 K, x1 = 0.0693 | 675.1
318.15 K, x1 = 0.1044 | 682.5
318.15 K, x1 = 0.1947 | 702.6
318.15 K, x1 = 0.2734 | 722
318.15 K, x1 = 0.3512 | 743.2
318.15 K, x1 = 0.419 | 763.3
318.15 K, x1 = 0.4889 | 785.9
318.15 K, x1 = 0.5518 | 808.1
318.15 K, x1 = 0.61 | 830.3
318.15 K, x1 = 0.6632 | 852
318.15 K, x1 = 0.7142 | 874.6
318.15 K, x1 = 0.762 | 897.1
318.15 K, x1 = 0.8077 | 920.1
318.15 K, x1 = 0.8514 | 943.8
318.15 K, x1 = 0.8883 | 965
318.15 K, x1 = 0.9289 | 989.7
318.15 K, x1 = 0.964 | 1012.4
318.15 K, x1 = 1 | 1036.9

[2]
Conditions | excess molar enthalpy [kcal/mol]
x1 = 0.095 | 0.191
x1 = 0.1875 | 0.317
x1 = 0.2819 | 0.413
x1 = 0.3677 | 0.474
x1 = 0.4442 | 0.503
x1 = 0.5016 | 0.512
x1 = 0.5205 | 0.512
x1 = 0.5497 | 0.511
x1 = 0.5542 | 0.51
x1 = 0.5906 | 0.505
x1 = 0.6326 | 0.493
x1 = 0.674 | 0.474
x1 = 0.7188 | 0.443
x1 = 0.7582 | 0.405
x1 = 0.8053 | 0.357
x1 = 0.8488 | 0.299
x1 = 0.892 | 0.23
x1 = 0.929 | 0.157
x1 = 0.9663 | 0.0784
x1 = 1 | 0

COC(=O)OC [dimethyl carbonate] + CCCCCCCC
[1]
Conditions | mass density [kg/m3]
293.15 K, x1 = 0.0513 | 711.1
293.15 K, x1 = 0.0997 | 719.8
293.15 K, x1 = 0.2027 | 740.5
293.15 K, x1 = 0.3063 | 764.5
293.15 K, x1 = 0.3994 | 789.1
293.15 K, x1 = 0.5123 | 823.6
293.15 K, x1 = 0.6078 | 857.4
293.15 K, x1 = 0.7137 | 901.2
293.15 K, x1 = 0.8055 | 945.8
293.15 K, x1 = 0.9061 | 1004
293.15 K, x1 = 0.9516 | 1034.3
293.15 K, x1 = 1 | 1070
298.15 K, x1 = 0.0558 | 707.8
298.15 K, x1 = 0.096 | 715
298.15 K, x1 = 0.1488 | 725.1
298.15 K, x1 = 0.2289 | 741.8
298.15 K, x1 = 0.2947 | 756.9
298.15 K, x1 = 0.4216 | 790.4
298.15 K, x1 = 0.4883 | 810.6
298.15 K, x1 = 0.4968 | 813.3
298.15 K, x1 = 0.5931 | 846.6
298.15 K, x1 = 0.6867 | 884.1
298.15 K, x1 = 0.7879 | 931.6
298.15 K, x1 = 0.8873 | 987.1
298.15 K, x1 = 0.9502 | 1027.7
298.15 K, x1 = 1 | 1063.5
303.15 K, x1 = 0.0519 | 702.9
303.15 K, x1 = 0.0827 | 708.3
303.15 K, x1 = 0.1947 | 729.9
303.15 K, x1 = 0.2829 | 749.4
303.15 K, x1 = 0.3948 | 778.1
303.15 K, x1 = 0.4942 | 807.5
303.15 K, x1 = 0.5964 | 842.4
303.15 K, x1 = 0.6983 | 883.1
303.15 K, x1 = 0.7886 | 925.2
303.15 K, x1 = 0.8946 | 984.3
303.15 K, x1 = 0.9545 | 1023.4
303.15 K, x1 = 1 | 1056.5
313.15 K, x1 = 0.0512 | 694.5
313.15 K, x1 = 0.1005 | 703
313.15 K, x1 = 0.186 | 719.2
313.15 K, x1 = 0.301 | 744.5
313.15 K, x1 = 0.4072 | 771.6
313.15 K, x1 = 0.5002 | 799.1
313.15 K, x1 = 0.6042 | 834.5
313.15 K, x1 = 0.709 | 876.3
313.15 K, x1 = 0.7993 | 918.8
313.15 K, x1 = 0.8465 | 944
313.15 K, x1 = 0.9524 | 1009.1
313.15 K, x1 = 1 | 1043.4
318.15 K, x1 = 0.0823 | 695.4
318.15 K, x1 = 0.1827 | 714.2
318.15 K, x1 = 0.2965 | 738.7
318.15 K, x1 = 0.3626 | 754.9
318.15 K, x1 = 0.436 | 774.6
318.15 K, x1 = 0.5156 | 798.6
318.15 K, x1 = 0.5606 | 813.4
318.15 K, x1 = 0.6305 | 838.7
318.15 K, x1 = 0.6756 | 856.4
318.15 K, x1 = 0.7428 | 885.6
318.15 K, x1 = 0.7845 | 905.6
318.15 K, x1 = 0.8233 | 925.5
318.15 K, x1 = 0.8711 | 951.7
318.15 K, x1 = 0.9071 | 973.5
318.15 K, x1 = 0.964 | 1010.8
318.15 K, x1 = 0.9761 | 1019.5
318.15 K, x1 = 1 | 1036.9

[2]
Conditions | excess molar enthalpy [kcal/mol]
x1 = 0.0844 | 0.164
x1 = 0.1746 | 0.299
x1 = 0.2622 | 0.403
x1 = 0.3463 | 0.475
x1 = 0.4232 | 0.514
x1 = 0.4922 | 0.528
x1 = 0.5544 | 0.528
x1 = 0.6104 | 0.516
x1 = 0.6455 | 0.504
x1 = 0.683 | 0.488
x1 = 0.7224 | 0.461
x1 = 0.7671 | 0.419
x1 = 0.8115 | 0.368
x1 = 0.8562 | 0.307
x1 = 0.8987 | 0.238
x1 = 0.9358 | 0.167
x1 = 0.9713 | 0.0834
x1 = 1 | 0
